Laboratory results: patent publication US10905729B1, “Formulations and methods for wound treatment” (Sorush, LLC, priority 2011, dated 2021)

Experiment: Chemical analysis of the extract for the antibiotics (HPLC-MS / MS)
Type: physicochemical
Settings: added at 0.003% each; analysed about two weeks after formation of the extract
Description: 10 grams of dried Lawsonia inermis leaves (www.ETSY.com) were placed in a beaker and 100 ml of distilled water were added. The mixture was stirred for 2 hours at room temperature to obtain an aqueous Lawsonia inermis extract designated as a 10% w/w or w/v extract. […] The Lawsonia inermis extract was analyzed for antibiotic activity and for the presence of the antibiotics about two weeks after formation of the extract.
A chemical analysis was performed on the extract. […] Polymyxin B analysis was performed on a Thermo Finnigan LCQ MS.

| Substance | antibiotic not detected in the extract at a level of [nanograms/ml] |
| --- | --- |
| Gentamicin [Gentamycin] | < 15.0 |
| Polymyxin B | < 960 |
